Laboratory results as given in paper PMC10004634 (PLOS ONE, 2023).
Read-outs that look alike come from different tables or passages of the source.

How the values were obtained:
Test in all cases: biochemical
Parameters in all cases: KINOMEscan scanMAX competition binding, DNA-tagged kinases, qPCR read-out, percent control at 300 nM
[1] = molecular target: T1, ABL1(T315I)-phosphorylated (Homo sapiens, UniProt P00519, T315I)
T1 construct: phosphorylated

EGFR(T790M) = EGFR(T790M) (Homo sapiens, UniProt P00533, T790M)
LYN = LYN (Homo sapiens, UniProt P07948)
ADCK4 = molecular target: T2, ADCK4 (Homo sapiens, UniProt Q96D53)
T2 construct: gene COQ8B

ASK2 = molecular target: T3, ASK2 (Homo sapiens, UniProt O95382)
T3 construct: gene MAP3K6

BMPR1A = BMPR1A (Homo sapiens, UniProt P36894)
CAMK2D = CAMK2D (Homo sapiens, UniProt Q13557)
CTK = molecular target: T4, CTK (Homo sapiens, UniProt P42679)
T4 construct: gene MATK

DAPK1 = DAPK1 (Homo sapiens, UniProt P53355)
GCN2(Kin.Dom.2,S808G) = molecular target: T5, GCN2(Kin.Dom.2,S808G) (Homo sapiens, UniProt Q9P2K8, S808G)
T5 construct: gene EIF2AK4; Kin.Dom.2

IRAK4 = IRAK4 (Homo sapiens, UniProt Q9NWZ3)
LOK = molecular target: T6, LOK (Homo sapiens, UniProt O94804)
T6 construct: gene STK10

MET = MET (Homo sapiens, UniProt P08581)
PFTK1 = molecular target: T7, PFTK1 (Homo sapiens, UniProt O94921)
T7 construct: gene CDK14

PIK3CA(H1047L) = PIK3CA(H1047L) (Homo sapiens, UniProt P42336, H1047L)
PIP5K1A = PIP5K1A (Homo sapiens, UniProt Q99755)
PKAC-alpha = molecular target: T8, PKAC-alpha (Homo sapiens, UniProt P17612)
T8 construct: gene PRKACA

TIE2 = molecular target: T9, TIE2 (Homo sapiens, UniProt Q02763)
T9 construct: gene TEK

TLK1 = TLK1 (Homo sapiens, UniProt Q9UKI8)
YANK1 = molecular target: T10, YANK1 (Homo sapiens, UniProt Q8WU08)
T10 construct: gene STK32A

YSK1 = molecular target: T11, YSK1 (Homo sapiens, UniProt O00506)
T11 construct: gene STK25

ERBB4 = ERBB4 (Homo sapiens, UniProt Q15303)
RET = RET (Homo sapiens, UniProt P07949)
[2] = read-out: Percent control / Tirabrutinib
[3] = read-out: Percent control / Zanubrutinib
[4] = read-out: Percent control / Acalabrutinib
[5] = read-out: Percent control / Ibrutinib

Sequence of PIP5K1A (Q99755 whole entry): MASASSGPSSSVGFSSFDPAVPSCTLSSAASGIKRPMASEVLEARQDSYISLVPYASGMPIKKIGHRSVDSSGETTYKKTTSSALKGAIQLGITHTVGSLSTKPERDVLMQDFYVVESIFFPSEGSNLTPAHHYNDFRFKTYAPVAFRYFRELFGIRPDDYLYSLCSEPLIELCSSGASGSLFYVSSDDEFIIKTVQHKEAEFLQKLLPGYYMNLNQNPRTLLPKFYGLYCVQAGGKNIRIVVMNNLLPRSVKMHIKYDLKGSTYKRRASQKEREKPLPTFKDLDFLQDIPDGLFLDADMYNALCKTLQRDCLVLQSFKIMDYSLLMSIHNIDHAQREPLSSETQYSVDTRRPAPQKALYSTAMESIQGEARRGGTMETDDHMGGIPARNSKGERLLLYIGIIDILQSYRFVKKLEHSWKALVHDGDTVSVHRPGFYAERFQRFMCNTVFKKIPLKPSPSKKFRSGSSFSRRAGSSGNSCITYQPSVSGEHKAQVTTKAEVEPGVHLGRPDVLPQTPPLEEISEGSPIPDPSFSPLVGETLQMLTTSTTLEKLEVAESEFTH
T5 sequence (Q9P2K8 whole entry S808G): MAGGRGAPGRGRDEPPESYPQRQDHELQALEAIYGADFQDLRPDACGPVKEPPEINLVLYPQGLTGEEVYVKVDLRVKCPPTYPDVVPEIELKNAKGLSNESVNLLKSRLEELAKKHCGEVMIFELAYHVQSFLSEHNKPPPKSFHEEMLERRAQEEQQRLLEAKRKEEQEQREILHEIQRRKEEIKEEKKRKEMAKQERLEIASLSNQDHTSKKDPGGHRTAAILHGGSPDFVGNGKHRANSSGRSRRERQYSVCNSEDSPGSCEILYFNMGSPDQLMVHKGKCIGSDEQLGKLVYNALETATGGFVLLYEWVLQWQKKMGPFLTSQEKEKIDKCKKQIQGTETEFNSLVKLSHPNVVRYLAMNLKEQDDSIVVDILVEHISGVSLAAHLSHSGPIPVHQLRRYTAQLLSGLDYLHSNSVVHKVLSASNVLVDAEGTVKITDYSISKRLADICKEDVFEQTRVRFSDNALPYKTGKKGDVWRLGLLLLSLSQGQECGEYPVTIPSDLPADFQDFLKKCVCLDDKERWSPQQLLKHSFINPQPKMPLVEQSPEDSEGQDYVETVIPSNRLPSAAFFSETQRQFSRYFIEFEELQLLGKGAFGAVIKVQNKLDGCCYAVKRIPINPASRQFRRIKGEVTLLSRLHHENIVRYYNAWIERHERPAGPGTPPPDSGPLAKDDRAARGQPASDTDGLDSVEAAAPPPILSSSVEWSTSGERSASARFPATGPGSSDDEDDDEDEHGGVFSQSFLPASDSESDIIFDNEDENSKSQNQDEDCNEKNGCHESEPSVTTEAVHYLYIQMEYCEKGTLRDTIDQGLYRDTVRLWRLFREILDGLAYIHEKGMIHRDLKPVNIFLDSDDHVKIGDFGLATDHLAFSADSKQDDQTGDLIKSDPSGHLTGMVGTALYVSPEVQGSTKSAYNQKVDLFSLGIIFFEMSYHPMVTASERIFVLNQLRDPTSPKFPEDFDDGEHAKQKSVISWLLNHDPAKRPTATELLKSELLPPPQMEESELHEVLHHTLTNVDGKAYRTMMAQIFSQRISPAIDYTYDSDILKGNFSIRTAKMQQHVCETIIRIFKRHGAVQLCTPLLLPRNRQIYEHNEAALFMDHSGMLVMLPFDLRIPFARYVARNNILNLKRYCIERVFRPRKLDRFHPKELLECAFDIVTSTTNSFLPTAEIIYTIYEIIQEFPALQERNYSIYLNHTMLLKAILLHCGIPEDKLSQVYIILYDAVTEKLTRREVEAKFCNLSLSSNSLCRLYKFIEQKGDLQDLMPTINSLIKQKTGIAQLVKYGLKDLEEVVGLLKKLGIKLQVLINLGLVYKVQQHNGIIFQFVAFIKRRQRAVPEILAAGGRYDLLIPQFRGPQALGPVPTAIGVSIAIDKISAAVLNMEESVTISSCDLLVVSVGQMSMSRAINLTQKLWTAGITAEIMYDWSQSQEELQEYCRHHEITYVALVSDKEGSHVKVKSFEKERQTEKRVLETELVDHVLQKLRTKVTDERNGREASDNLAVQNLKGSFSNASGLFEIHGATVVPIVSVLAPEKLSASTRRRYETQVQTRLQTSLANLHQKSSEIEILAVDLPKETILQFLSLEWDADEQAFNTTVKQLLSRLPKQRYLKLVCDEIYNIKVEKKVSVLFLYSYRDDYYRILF
T6 sequence (O94804 whole entry): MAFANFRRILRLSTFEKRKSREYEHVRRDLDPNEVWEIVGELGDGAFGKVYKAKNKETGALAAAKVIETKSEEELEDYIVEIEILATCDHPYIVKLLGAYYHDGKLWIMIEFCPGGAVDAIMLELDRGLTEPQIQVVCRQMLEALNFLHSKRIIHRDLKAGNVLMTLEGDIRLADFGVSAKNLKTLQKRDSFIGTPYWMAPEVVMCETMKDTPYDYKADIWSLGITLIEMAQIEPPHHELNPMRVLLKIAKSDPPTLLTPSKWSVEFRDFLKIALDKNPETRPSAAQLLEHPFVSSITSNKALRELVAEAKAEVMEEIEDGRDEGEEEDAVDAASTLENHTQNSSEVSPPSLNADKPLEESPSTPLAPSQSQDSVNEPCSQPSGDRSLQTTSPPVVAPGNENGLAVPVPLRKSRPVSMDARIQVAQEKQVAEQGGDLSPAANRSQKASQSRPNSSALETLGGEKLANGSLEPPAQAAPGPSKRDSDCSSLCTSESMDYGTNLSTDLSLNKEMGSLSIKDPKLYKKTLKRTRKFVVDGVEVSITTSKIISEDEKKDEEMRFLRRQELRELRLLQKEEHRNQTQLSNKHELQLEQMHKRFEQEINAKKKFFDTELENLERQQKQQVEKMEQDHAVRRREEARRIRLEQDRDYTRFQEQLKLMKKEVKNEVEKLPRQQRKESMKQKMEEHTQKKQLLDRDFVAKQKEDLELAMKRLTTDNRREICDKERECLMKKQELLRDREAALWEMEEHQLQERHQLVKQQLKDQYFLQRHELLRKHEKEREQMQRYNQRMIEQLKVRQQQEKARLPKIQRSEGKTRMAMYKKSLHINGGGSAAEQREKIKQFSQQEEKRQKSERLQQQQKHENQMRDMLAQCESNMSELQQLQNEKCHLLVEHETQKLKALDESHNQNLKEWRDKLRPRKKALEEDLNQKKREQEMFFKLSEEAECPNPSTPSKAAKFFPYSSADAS
Sequence of ERBB4 (Q15303 whole entry): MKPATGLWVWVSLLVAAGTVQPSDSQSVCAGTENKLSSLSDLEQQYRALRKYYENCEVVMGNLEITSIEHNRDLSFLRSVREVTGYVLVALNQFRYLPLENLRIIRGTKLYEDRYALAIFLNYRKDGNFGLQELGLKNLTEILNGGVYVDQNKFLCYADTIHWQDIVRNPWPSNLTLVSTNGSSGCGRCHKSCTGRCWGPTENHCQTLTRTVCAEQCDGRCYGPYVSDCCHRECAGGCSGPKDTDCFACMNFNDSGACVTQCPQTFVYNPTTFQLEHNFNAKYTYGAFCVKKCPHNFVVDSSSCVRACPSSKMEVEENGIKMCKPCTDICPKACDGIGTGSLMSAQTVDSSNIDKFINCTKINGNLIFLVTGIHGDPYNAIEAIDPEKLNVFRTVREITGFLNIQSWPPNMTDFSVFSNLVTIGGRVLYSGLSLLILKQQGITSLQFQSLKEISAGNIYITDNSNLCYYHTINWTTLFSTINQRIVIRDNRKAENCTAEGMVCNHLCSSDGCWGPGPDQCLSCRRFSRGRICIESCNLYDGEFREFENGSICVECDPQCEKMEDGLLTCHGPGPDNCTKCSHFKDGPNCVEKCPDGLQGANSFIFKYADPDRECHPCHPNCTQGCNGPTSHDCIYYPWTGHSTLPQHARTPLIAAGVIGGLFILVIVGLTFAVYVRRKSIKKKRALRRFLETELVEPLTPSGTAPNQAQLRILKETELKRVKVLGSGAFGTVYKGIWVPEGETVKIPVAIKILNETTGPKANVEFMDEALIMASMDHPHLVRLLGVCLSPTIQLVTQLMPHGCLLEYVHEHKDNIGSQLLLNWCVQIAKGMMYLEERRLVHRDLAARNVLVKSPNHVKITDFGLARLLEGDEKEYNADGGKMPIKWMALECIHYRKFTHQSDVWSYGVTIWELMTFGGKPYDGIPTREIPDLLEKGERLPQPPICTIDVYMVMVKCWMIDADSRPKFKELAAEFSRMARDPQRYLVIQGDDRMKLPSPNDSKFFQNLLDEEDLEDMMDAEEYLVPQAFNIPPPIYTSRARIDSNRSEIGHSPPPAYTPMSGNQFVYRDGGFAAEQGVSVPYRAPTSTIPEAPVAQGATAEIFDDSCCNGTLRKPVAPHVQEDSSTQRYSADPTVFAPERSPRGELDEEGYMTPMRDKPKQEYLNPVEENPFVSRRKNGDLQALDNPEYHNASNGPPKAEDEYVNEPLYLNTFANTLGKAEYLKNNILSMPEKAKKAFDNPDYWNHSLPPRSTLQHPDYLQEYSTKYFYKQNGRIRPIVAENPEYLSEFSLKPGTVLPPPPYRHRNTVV
Sequence of IRAK4 (Q9NWZ3 whole entry): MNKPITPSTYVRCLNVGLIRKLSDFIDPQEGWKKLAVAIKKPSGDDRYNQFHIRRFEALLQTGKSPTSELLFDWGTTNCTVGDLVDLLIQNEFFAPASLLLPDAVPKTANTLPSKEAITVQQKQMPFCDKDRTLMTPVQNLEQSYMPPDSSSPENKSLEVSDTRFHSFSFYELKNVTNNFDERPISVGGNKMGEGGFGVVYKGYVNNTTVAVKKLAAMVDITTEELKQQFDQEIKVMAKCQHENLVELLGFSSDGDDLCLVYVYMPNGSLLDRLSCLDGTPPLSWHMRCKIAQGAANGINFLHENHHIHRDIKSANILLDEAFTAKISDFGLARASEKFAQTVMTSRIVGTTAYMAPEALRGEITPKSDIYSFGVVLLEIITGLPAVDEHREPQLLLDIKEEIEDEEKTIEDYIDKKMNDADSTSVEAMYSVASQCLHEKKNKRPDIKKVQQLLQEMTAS

## CC#CC(=O)N1CC[C@@H](n2c(=O)n(-c3ccc(Oc4ccccc4)cc3)c3c(N)ncnc32)C1 [Tirabrutinib]
[1]; [2]
  remaining binding at 0.3 µM: 73%
EGFR(T790M); [2]
  remaining binding at 0.3 µM: 75%
LYN; [2]
  remaining binding at 0.3 µM: 76%

## C=CC(=O)N1CCC([C@@H]2CCNc3c(C(N)=O)c(-c4ccc(Oc5ccccc5)cc4)nn32)CC1 [Zanubrutinib]
ADCK4; [3]
  remaining binding at 0.3 µM: 100%
ASK2; [3]
  remaining binding at 0.3 µM: 55%
BMPR1A; [3]
  remaining binding at 0.3 µM: 90%
CAMK2D; [3]
  remaining binding at 0.3 µM: 80%
CTK; [3]
  remaining binding at 0.3 µM: 98%
DAPK1; [3]
  remaining binding at 0.3 µM: 87%
GCN2(Kin.Dom.2,S808G); [3]
  remaining binding at 0.3 µM: 100%
IRAK4; [3]
  remaining binding at 0.3 µM: 91%
LOK; [3]
  remaining binding at 0.3 µM: 93%
MET; [3]
  remaining binding at 0.3 µM: 96%
PFTK1; [3]
  remaining binding at 0.3 µM: 92%
PIK3CA(H1047L); [3]
  remaining binding at 0.3 µM: 100%
PIP5K1A; [3]
  remaining binding at 0.3 µM: 92%
PKAC-alpha; [3]
  remaining binding at 0.3 µM: 99%
TIE2; [3]
  remaining binding at 0.3 µM: 99%
TLK1; [3]
  remaining binding at 0.3 µM: 92%
YANK1; [3]
  remaining binding at 0.3 µM: 75%
YSK1; [3]
  remaining binding at 0.3 µM: 88%

## CC#CC(=O)N1CCC[C@H]1c1nc(-c2ccc(C(=O)Nc3ccccn3)cc2)c2c(N)nccn12 [Acalabrutinib]
[1]; [4]
  remaining binding at 0.3 µM: 97%
ADCK4; [4]
  remaining binding at 0.3 µM: 96%
ASK2; [4]
  remaining binding at 0.3 µM: 87%
CAMK2D; [4]
  remaining binding at 0.3 µM: 93%
CTK; [4]
  remaining binding at 0.3 µM: 97%
DAPK1; [4]
  remaining binding at 0.3 µM: 94%
EGFR(T790M); [4]
  remaining binding at 0.3 µM: 93%
ERBB4; [4]
  remaining binding at 0.3 µM: 7.7%
GCN2(Kin.Dom.2,S808G); [4]
  remaining binding at 0.3 µM: 91%
IRAK4; [4]
  remaining binding at 0.3 µM: 97%
LOK; [4]
  remaining binding at 0.3 µM: 99%
LYN; [4]
  remaining binding at 0.3 µM: 88%
MET; [4]
  remaining binding at 0.3 µM: 90%
PFTK1; [4]
  remaining binding at 0.3 µM: 89%
PIK3CA(H1047L); [4]
  remaining binding at 0.3 µM: 90%
PIP5K1A; [4]
  remaining binding at 0.3 µM: 83%
PKAC-alpha; [4]
  remaining binding at 0.3 µM: 99%
RET; [4]
  remaining binding at 0.3 µM: 87%
YANK1; [4]
  remaining binding at 0.3 µM: 97%

## C=CC(=O)N1CCC[C@@H](n2nc(-c3ccc(Oc4ccccc4)cc3)c3c(N)ncnc32)C1 [Ibrutinib]
BMPR1A; [5]
  remaining binding at 0.3 µM: 99%
ERBB4; [5]
  remaining binding at 0.3 µM: 0.15%
RET; [5]
  remaining binding at 0.3 µM: 40%
TIE2; [5]
  remaining binding at 0.3 µM: 72%
TLK1; [5]
  remaining binding at 0.3 µM: 80%
YSK1; [5]
  remaining binding at 0.3 µM: 85%
